This is an account of results in patent US6660728B2, “Thienyl substituted acylguanidines as inhibitors of bone resorption and vitronectin receptor antagonists” (Aventis Pharma Deutschland GmbH, priority 1998, dated 2003).

The target in data set [1] is T1, Human Vitronectin Receptor (VnR) αvβ3 (Homo sapiens, UniProt P05106+P06756).
T1 construct: Human vitronectin receptor was isolated from human placenta using the method of Pytela et al; from tissue; host or cells: human placenta
The data set is described as follows: K/VnR test: inhibition of the binding of kistrin to human vitronectin receptor (ELISA).

Bounds are passed on as bounds.

By melting point is commonly meant the temperature of the solid-liquid transition. One may read the IC50 as the midpoint of a concentration-inhibition curve. Low values mean greater potency in that assay, high ones weaker potency in that assay.

T1 sequence (P06756 31-889 limits assumed): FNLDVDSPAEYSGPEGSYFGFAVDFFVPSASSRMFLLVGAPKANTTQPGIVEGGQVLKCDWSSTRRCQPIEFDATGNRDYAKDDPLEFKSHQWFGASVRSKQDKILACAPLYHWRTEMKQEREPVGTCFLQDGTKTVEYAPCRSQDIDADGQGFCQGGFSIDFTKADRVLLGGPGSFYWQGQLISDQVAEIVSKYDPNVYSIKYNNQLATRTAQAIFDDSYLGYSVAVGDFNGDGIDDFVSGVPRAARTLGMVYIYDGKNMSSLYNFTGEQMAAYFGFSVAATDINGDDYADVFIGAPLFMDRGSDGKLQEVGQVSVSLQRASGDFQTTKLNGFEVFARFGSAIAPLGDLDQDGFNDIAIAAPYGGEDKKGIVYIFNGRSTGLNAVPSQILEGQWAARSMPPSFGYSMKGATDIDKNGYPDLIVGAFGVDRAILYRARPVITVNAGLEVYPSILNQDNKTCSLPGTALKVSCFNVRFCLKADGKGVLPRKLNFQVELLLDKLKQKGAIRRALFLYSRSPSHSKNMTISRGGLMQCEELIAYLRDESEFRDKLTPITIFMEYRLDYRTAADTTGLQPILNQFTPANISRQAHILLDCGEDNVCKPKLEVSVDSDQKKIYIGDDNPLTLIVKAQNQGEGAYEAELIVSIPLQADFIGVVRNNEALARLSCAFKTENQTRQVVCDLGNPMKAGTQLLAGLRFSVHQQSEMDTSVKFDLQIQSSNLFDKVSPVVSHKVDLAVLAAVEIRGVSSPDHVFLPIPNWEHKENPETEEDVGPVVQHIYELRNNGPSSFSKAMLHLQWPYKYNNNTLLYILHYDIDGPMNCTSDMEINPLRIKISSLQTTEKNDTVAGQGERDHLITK
T1 sequence (P06756 891-1048 limits assumed): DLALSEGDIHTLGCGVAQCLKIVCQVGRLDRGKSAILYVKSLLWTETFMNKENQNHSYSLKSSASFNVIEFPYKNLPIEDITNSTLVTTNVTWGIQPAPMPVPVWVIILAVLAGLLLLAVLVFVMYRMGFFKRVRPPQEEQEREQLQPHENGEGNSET
T1 sequence (P05106 27-788): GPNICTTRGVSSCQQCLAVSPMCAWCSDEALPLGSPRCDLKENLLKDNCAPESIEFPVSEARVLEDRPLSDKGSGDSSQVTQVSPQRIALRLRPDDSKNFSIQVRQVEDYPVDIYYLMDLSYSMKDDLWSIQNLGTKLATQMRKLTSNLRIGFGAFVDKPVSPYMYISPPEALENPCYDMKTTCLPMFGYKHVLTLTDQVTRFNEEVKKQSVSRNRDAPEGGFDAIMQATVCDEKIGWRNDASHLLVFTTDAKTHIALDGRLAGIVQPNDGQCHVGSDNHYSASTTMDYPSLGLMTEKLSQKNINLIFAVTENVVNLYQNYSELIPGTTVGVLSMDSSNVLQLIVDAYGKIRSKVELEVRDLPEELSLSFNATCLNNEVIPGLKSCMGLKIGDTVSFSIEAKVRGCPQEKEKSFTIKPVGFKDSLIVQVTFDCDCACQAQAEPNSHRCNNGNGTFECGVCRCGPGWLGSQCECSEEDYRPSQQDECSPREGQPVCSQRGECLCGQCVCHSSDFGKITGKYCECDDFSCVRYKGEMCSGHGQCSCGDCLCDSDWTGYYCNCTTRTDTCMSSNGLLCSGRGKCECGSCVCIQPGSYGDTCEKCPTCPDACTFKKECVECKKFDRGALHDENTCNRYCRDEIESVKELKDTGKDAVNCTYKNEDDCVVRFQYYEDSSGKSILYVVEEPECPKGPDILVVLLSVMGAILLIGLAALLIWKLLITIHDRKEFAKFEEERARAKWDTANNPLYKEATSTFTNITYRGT

With `CC(C)COC(=O)[C@H](CNC(=O)c1ccc(CCC(=O)NC2=NCCCN2)s1)NC(=O)OCC12CC3CC(CC(C3)C1)C2`, the melting point was 210 °C (dec.).
`O=C(O)C[C@H](NC(=O)c1ccc(CCC(=O)NC2=NCCCN2)s1)c1ccc2c(c1)OCO2` came in with a melting point of 130 °C.
Turning to `O=C(/C=C/c1ccc(C(=O)NC[C@H](NC(=O)OCc2ccccc2)C(=O)O)s1)NC1=NCCCN1` [Example 14, (2S)-2-Benzyloxycarbonylamino-3-((5-(2-(1,4,5,6-tetrahydropyrimidin-2-ylcarbamoyl)-vinyl)-thiophene-2-carbonyl)-amino)-propionic Acid], in data set [1], the IC50 was above 10 µM.
As to `CC(C)OC(=O)[C@H](CNC(=O)c1ccc(CCC(=O)NC2=NCCCN2)s1)NC(=O)OCC12CC3CC(CC(C3)C1)C2`, the melting point was 160 °C (dec.).
